SMILES strings stand for the structures. “Also recorded” adds a separate entry of the source.

Data set [1] deals with Male SD (Sprague-Dawley) rats. Put plainly: APAP-induced hepatotoxicity in rats: galactose single point (GSP) residual liver function test. It is filed as in vivo, rat. The note with it: excipient 1.67 mg/kg + APAP 1000 mg/kg, single oral dose. How it is done:
After the study was completed, all rats were subjected to GSP test. Rats were i.v. injected with 0.4 g/ml BW galactose solution 0.5 g/kg within 30 seconds and one blood sample was collected at 5, 10, 15, 30, 45 and 60 minutes post injection from the tail vein. Colorimetric galactose dehydrogenase is used to quantify the concentration of galactose and the test concentration ranges from 50 to 1,000 μg/ml. The within-day variation of each concentration is calculated using standard deviation and coefficient of variation (CV) and the maximum allowable coefficient of variation is 10% CV, whereas day-to-day variation is examined by comparing the slope and intercept of calibration curves. The GSP is the blood galactose concentration obtained 60 seconds after stopping the 30-second injection.

In data set [2] the target is Cytochrome P450 2E1 (CYP2E1) (Rattus norvegicus, UniProt P05182). In words: In-vitro screening of CYP2E1 inhibitors in rat liver microsomes (chlorzoxazone 6-hydroxylation). The note with it: rat, microsomes, 30 min, pH 7.4. The text has this:
(§1) This example is preparation of microsomes from rat and human liver for in vitro screening of CYP2E1 inhibitors. A total of 55 safe and edible excipients are included in the screening for cytochrome P450 2E1 (CYP2E1) inhibitors. […] After addition of the test sample, the amount of CYP2E1 metabolite standard 6-OH—CZX (6-Hydroxy-Chlorzoxazone) is used for calculation of the CYP 2E1 inhibition ratio of the test sample by using the amount of 6-OH—CZX of the control group as the baseline.
(§2) Transfer to and pre-incubate the reaction mixture in a water bath at 37° C. for 1 minute. […] Incubate the sample for 1 minute and add internal standard (5 ug/mL 4-hydroxy-tobutamide).
For orientation: Microsomes from liver hold many membrane-bound enzymes, among them those of drug oxidation.

For data set [3], the target named is Cytochrome P450 2E1 (CYP2E1) (Homo sapiens, UniProt P05181). Put plainly: In-vitro screening of CYP2E1 inhibitors in human liver microsomes (chlorzoxazone 6-hydroxylation). The settings on record: human, microsomes, 30 min, pH 7.4.
Source text: as §1, §2

The test system of data set [4] is Male SD (Sprague-Dawley) rats. Put plainly: APAP-induced hepatotoxicity in rats: plasma AST and ALT activity. It is filed as in vivo, rat. As to the method: After completion of the treatments, rats were sacrificed under ether anesthesia, and blood was collected from the tail artery of the rats and placed in a test tube containing EDTA. The plasma was centrifuged at 13,000 at 4° C. for 15 minutes and the isolated plasma was transferred to Eppendorf tubes in aliquots and stored at −80° C.
Liver damage is quantified by measuring plasma AST and ALT activity. AST and ALT are common indicators of hepatotoxicity and are measured by using the Synchron LXi 725 system (Beckman Instruments, U.S.).

Data set [5] concerns Male SD (Sprague-Dawley) rats. Put plainly: APAP-induced hepatotoxicity in rats: histological liver tissue sections (Total HAI-score). The settings on record: single oral dose.
Setting [6] is: excipient 1.67 mg/kg + APAP 1000 mg/kg, single oral dose.

Cytochrome P450 2E1 (CYP2E1) (Rattus norvegicus, UniProt P05182), sequence (P05182 whole entry): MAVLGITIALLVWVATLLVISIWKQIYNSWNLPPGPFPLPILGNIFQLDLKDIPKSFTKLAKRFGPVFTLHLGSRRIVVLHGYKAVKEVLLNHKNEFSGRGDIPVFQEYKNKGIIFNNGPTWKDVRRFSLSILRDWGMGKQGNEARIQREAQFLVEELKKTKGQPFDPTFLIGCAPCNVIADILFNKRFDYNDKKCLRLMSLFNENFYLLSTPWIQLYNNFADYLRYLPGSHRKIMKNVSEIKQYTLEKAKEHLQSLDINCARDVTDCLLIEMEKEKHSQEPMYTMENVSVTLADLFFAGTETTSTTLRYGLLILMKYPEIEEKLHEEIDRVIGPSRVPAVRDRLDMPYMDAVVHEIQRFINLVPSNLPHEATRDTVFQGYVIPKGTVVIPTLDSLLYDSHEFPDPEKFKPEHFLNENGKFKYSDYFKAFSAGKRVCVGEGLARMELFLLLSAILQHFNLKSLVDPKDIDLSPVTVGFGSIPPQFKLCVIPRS
Cytochrome P450 2E1 (CYP2E1) (Homo sapiens, UniProt P05181), sequence (P05181 whole entry): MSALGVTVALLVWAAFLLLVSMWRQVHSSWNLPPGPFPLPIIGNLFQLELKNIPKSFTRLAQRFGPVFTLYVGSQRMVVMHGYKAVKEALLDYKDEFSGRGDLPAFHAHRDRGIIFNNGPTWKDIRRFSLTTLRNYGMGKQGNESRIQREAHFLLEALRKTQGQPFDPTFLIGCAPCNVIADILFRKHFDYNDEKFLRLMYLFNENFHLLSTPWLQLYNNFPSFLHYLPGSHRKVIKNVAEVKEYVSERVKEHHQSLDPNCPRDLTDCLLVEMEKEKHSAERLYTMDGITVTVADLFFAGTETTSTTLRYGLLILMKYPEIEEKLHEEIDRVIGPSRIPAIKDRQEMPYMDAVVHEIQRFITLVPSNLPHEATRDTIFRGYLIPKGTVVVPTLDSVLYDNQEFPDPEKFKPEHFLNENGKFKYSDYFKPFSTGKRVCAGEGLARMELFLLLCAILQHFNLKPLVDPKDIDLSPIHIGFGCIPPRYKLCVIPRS

Turning to `OC[C@H]1O[C@H](O[C@]2(CCl)O[C@H](CCl)[C@@H](O)[C@@H]2O)[C@H](O)[C@@H](O)[C@H]1Cl` [Sucralose], in data set [1], the GSP was found to be 218 ± 31 mg/L. Besides, the “CYP 2E1 inhibition ratio” value in data set [2] (16.5 μM) was 41.1 ± 2.7%; in data set [2] (33 μM), 46.8 ± 0.8%; in data set [2] (66 μM) it was 54.0 ± 4.2%; in data set [3] (16.5 μM) it was 37.1 ± 2.8%; in data set [3] (33 μM), 45.8 ± 4.0%; in data set [3] (66 μM) it was 55.8 ± 2.0%. In data set [4] (combined with APAP 1000 mg/kg, versus APAP hepatotoxicity group), the “improvement of APAP liver damage (AST, ALT, GSP and Total HAI-score, in words)” value is “significant decrease”. Also, the ALT in data set [4] (setting [6]) is listed as 83 ± 23 IU/L. In addition, the AST in data set [4] (setting [6]) was 199 ± 24 IU/L. For the same compound, the “Total HAI-score” value in data set [5] (excipient 1.67 mg/kg + APAP 1000 mg/kg) is reported as 0.6 ± 0.4. Further, in data set [5] (liver protection groups + APAP 1000 mg/kg, H&E stain 200×, FIG. 2), the “liver tissue sections, hepatocyte morphology (in words)” value was “most similar to the liver tissue sections of normal rats; also recorded: hepatocytes are relatively intact with visible nucleus and less vacuolization”.

Source of the values: US10420737B2, “Hepatotoxicity-free pharmaceutical composition containing acetaminophen drugs” (NATIONAL DEFENSE EDUCATION AND RESEARCH FOUNDATION, priority 2013, dated 2019).
